Measured values taken from patent publication US12252524B2, “GIP/GLP1 co-agonist compounds” (Eli Lilly and Company, priority 2018, dated 2025).
Numbered stars: 1 amine (or outer) side, 2 acyl side, 3 side chain; on linkers, the order of the positions; unused ones are H or OH. Square brackets hold non-standard residues; d marks the D form. Side chains are listed from the residue outwards. Peptide text beside a SMILES is read from it. * marks the point of attachment. C20 diacid = O=C(O)CCCCCCCCCCCCCCCCCCC(=O)*; C18 diacid = O=C(O)CCCCCCCCCCCCCCCCC(=O)*; αMePhe(2-F) = C[C@](N)(Cc1ccccc1F)C(=O)O; γGlu = O=C(O)[C@H](CCC(=O)[*:2])N[*:1]; 3Pal = N[C@@H](Cc1cccnc1)C(=O)O; αMeL = CC(C)C[C@](C)(N)C(=O)O; αMeP = C[C@@]1(C(=O)O)CCCN1; AEEA = NCCOCCOCC(=O)O; Aib = CC(C)(N)C(=O)O

Experiments:
[1] = target: human GLP-1 receptor (GLP-1R) (Homo sapiens, UniProt P43220); assay: cAMP pharmacological functional assay in presence of casein, hGLP-1R; type: cell-based; conditions: HEK293 cells expressing hGLP-1R, 0.1% Casein, geometric mean; read-out: hGLP1R cAMP Rel EC50 nM (SEM, n)
[2] = target: T1, gastric inhibitory peptide receptor (GIPR) (Homo sapiens, UniProt P48546); assay: cAMP pharmacological functional assay in presence of casein, hGIPR; type: cell-based; conditions: HEK293 cells expressing hGIPR, 0.1% Casein, geometric mean; read-out: hGIPR cAMP Rel EC50 nM (SEM, n)
T1 sequence (P48546 22-466): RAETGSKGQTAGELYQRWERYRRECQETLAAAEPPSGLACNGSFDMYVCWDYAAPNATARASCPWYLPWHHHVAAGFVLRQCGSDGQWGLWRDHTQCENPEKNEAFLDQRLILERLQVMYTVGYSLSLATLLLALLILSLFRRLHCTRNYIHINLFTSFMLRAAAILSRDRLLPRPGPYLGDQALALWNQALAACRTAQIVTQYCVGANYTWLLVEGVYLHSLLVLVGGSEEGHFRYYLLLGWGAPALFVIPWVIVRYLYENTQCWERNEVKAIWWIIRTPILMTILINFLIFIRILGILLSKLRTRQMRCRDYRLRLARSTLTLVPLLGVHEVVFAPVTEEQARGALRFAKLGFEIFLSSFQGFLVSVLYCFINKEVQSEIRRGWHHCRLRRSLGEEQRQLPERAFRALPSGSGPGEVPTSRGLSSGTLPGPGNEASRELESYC

Chain of human GLP-1 receptor (GLP-1R) (P43220 24-463): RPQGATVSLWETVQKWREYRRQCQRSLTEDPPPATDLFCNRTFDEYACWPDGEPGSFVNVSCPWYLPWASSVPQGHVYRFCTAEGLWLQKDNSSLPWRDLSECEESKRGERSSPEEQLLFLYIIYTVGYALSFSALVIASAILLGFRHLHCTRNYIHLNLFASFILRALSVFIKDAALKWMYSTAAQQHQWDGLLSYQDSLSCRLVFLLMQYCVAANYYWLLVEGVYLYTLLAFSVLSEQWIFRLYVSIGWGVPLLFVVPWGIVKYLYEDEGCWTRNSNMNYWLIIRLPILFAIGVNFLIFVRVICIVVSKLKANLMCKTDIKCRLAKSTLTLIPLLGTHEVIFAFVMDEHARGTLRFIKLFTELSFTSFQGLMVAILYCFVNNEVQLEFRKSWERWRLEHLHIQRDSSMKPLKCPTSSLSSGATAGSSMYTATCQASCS

Row | Structure (SMILES) | EC50 [1] | EC50 [2]
1 | CC[C@H](C)[C@H](NC(=O)[C@H](CC(C)C)NC(=O)[C@H](Cc1ccc(O)cc1)NC(=O)[C@@H](CCC(=O)O)NC(=O)[C@@H](NC(=O)[C@H](Cc1ccccc1)NC(=O)[C@@H](NC(=O)C(C)(C)NC(=O)[C@H](CCC(N)=O)NC(=O)[C@H](C)NC(=O)[C@H](CCCCNC(=O)COCCOCCNC(=O)COCCOCCNC(=O)[C@@H](N)CCCCNC(=O)CCCCCCCCCCCCCCCCC(=O)O)NC(=O)[C@H](CCC(=O)O)NC(=O)[C@H](CC(=O)O)NC(=O)[C@H](CC(C)C)NC(=O)C(C)(CC(C)C)NC(=O)[C@@H](NC(=O)[C@H](CO)NC(=O)[C@H](Cc1c[nH]cn1)NC(=O)[C@H](CC(=O)O)NC(=O)[C@H](CO)NC(=O)[C@@H](NC(=O)C(C)(Cc1ccccc1F)NC(=O)[C@@H](NC(=O)CNC(=O)[C@H](CCC(=O)O)NC(=O)C(C)(C)NC(=O)[C@@H](N)Cc1ccc(O)cc1)[C@@H](C)O)[C@@H](C)O)[C@@H](C)CC)[C@@H](C)O)[C@@H](C)CC)C(=O)N[C@@H](CCC(=O)O)C(=O)NCC(=O)NCC(=O)N1CCC[C@H]1C(=O)N[C@@H](CO)C(=O)N[C@@H](CO)C(=O)NCC(=O)N[C@@H](C)C(=O)N1CCC[C@H]1C(=O)N1CCC[C@H]1C(=O)N1CCC[C@H]1C(=O)N[C@@H](CO)C(N)=O (stereo partly drawn) [Example 176] | 1.07 nM | 0.523 nM
2 | CC[C@H](C)[C@H](NC(=O)[C@H](CC(C)C)NC(=O)[C@H](Cc1ccc(O)cc1)NC(=O)[C@@H](CCC(=O)O)NC(=O)[C@@H](NC(=O)[C@H](Cc1ccccc1)NC(=O)[C@H](Cc1c[nH]cn1)NC(=O)C(C)(C)NC(=O)[C@H](CCC(N)=O)NC(=O)[C@H](C)NC(=O)[C@H](CCCCNC(=O)COCCOCCNC(=O)COCCOCCNC(=O)CC[C@H](NC(=O)CCCCCCCCCCCCCCCCC(=O)O)C(=O)O)NC(=O)[C@H](CCC(=O)O)NC(=O)[C@H](CC(=O)O)NC(=O)[C@H](CC(C)C)NC(=O)[C@](C)(CC(C)C)NC(=O)[C@@H](NC(=O)[C@H](CO)NC(=O)[C@H](Cc1c[nH]cn1)NC(=O)[C@H](CC(=O)O)NC(=O)[C@H](CO)NC(=O)[C@@H](NC(=O)[C@](C)(Cc1ccccc1F)NC(=O)[C@@H](NC(=O)CNC(=O)[C@H](CCC(=O)O)NC(=O)C(C)(C)NC(=O)[C@@H](N)Cc1ccc(O)cc1)[C@@H](C)O)[C@@H](C)O)[C@@H](C)CC)[C@@H](C)CC)C(=O)N[C@@H](CCC(=O)O)C(=O)NCC(=O)NCC(=O)N1CCC[C@H]1C(=O)N[C@@H](CO)C(=O)N[C@@H](CO)C(=O)NCC(=O)N[C@@H](C)C(=O)N1CCC[C@H]1C(=O)N1CCC[C@H]1C(=O)N1CCC[C@H]1C(=O)N[C@@H](CO)C(N)=O [Example 177] (H-Y[Aib]EGT[αMePhe(2-F)]TSDHSI[αMeL]LDEK([AEEA-AEEA-γGlu-C18 diacid])AQ[Aib]HFI[dE]YLIEGGPSSGAPPPS-NH2) | 6.79 nM | 1.4 nM
3 | CC[C@H](C)[C@H](NC(=O)[C@H](CC(C)C)NC(=O)[C@H](Cc1ccc(O)cc1)NC(=O)[C@@H](CCC(=O)O)NC(=O)[C@@H](NC(=O)[C@H](Cc1ccccc1)NC(=O)[C@H](CCC(=O)O)NC(=O)C(C)(C)NC(=O)[C@H](CCC(N)=O)NC(=O)[C@H](C)NC(=O)[C@H](CCCCNC(=O)COCCOCCNC(=O)COCCOCCNC(=O)CC[C@H](NC(=O)CCCCCCCCCCCCCCCCCCC(=O)O)C(=O)O)NC(=O)[C@H](CCC(=O)O)NC(=O)[C@H](CC(=O)O)NC(=O)[C@H](CC(C)C)NC(=O)[C@](C)(CC(C)C)NC(=O)[C@@H](NC(=O)[C@H](CO)NC(=O)[C@H](CCC(N)=O)NC(=O)[C@H](CC(=O)O)NC(=O)[C@H](CO)NC(=O)[C@@H](NC(=O)[C@](C)(Cc1ccccc1F)NC(=O)[C@@H](NC(=O)CNC(=O)[C@H](CCC(=O)O)NC(=O)C(C)(C)NC(=O)[C@@H](N)Cc1ccc(O)cc1)[C@@H](C)O)[C@@H](C)O)[C@@H](C)CC)[C@@H](C)CC)C(=O)N[C@@H](CCC(=O)O)C(=O)NCC(=O)NCC(=O)N1CCC[C@H]1C(=O)N[C@@H](CO)C(=O)N[C@@H](CO)C(=O)NCC(=O)N[C@@H](C)C(=O)N1CCC[C@H]1C(=O)N1CCC[C@H]1C(=O)N1CCC[C@H]1C(=O)N[C@@H](CO)C(N)=O [Example 187] (H-Y[Aib]EGT[αMePhe(2-F)]TSDQSI[αMeL]LDEK([AEEA-AEEA-γGlu-C20 diacid])AQ[Aib]EFI[dE]YLIEGGPSSGAPPPS-NH2) | 0.0577 nM | 0.0371 nM
4 | CC[C@H](C)[C@H](NC(=O)[C@H](CC(C)C)NC(=O)[C@H](Cc1ccc(O)cc1)NC(=O)C(C)(C)NC(=O)[C@@H](NC(=O)[C@H](Cc1ccccc1)NC(=O)[C@H](CCC(=O)O)NC(=O)C(C)(C)NC(=O)[C@H](CCC(N)=O)NC(=O)[C@H](C)NC(=O)[C@H](CCCCNC(=O)COCCOCCNC(=O)COCCOCCNC(=O)CC[C@H](NC(=O)CCCCCCCCCCCCCCCCCCC(=O)O)C(=O)O)NC(=O)[C@H](CCC(=O)O)NC(=O)[C@H](CC(=O)O)NC(=O)[C@H](CC(C)C)NC(=O)[C@](C)(CC(C)C)NC(=O)[C@@H](NC(=O)[C@H](CO)NC(=O)[C@H](Cc1cccnc1)NC(=O)[C@H](CC(=O)O)NC(=O)[C@H](CO)NC(=O)[C@@H](NC(=O)[C@](C)(Cc1ccccc1F)NC(=O)[C@@H](NC(=O)CNC(=O)[C@H](CCC(=O)O)NC(=O)C(C)(C)NC(=O)[C@@H](N)Cc1ccc(O)cc1)[C@@H](C)O)[C@@H](C)O)[C@@H](C)CC)[C@@H](C)CC)C(=O)N[C@@H](CCC(=O)O)C(=O)NCC(=O)NCC(=O)N1CCC[C@H]1C(=O)N[C@@H](CO)C(=O)N[C@@H](CO)C(=O)NCC(=O)N[C@@H](C)C(=O)N1CCC[C@H]1C(=O)N1CCC[C@H]1C(=O)N1CCC[C@H]1C(=O)N[C@@H](CO)C(N)=O [Example 188] (H-Y[Aib]EGT[αMePhe(2-F)]TSD[3Pal]SI[αMeL]LDEK([AEEA-AEEA-γGlu-C20 diacid])AQ[Aib]EFI[Aib]YLIEGGPSSGAPPPS-NH2) | 0.13 nM | 0.121 nM
5 | CC[C@H](C)[C@H](NC(=O)[C@H](CC(C)C)NC(=O)[C@H](Cc1ccc(O)cc1)NC(=O)[C@@H](CCC(=O)O)NC(=O)[C@@H](NC(=O)[C@H](Cc1ccccc1)NC(=O)[C@H](CCC(=O)O)NC(=O)C(C)(C)NC(=O)[C@H](CCC(N)=O)NC(=O)[C@H](C)NC(=O)[C@H](CCCCNC(=O)COCCOCCNC(=O)COCCOCCNC(=O)CC[C@H](NC(=O)CCCCCCCCCCCCCCCCCCC(=O)O)C(=O)O)NC(=O)[C@H](CCC(=O)O)NC(=O)[C@H](CC(=O)O)NC(=O)[C@H](CC(C)C)NC(=O)[C@](C)(CC(C)C)NC(=O)[C@@H](NC(=O)[C@H](CO)NC(=O)[C@H](Cc1cccnc1)NC(=O)[C@H](CC(=O)O)NC(=O)[C@H](CO)NC(=O)[C@@H](NC(=O)[C@](C)(Cc1ccccc1F)NC(=O)[C@@H](NC(=O)CNC(=O)[C@H](CCC(=O)O)NC(=O)C(C)(C)NC(=O)[C@@H](N)Cc1c[nH]cn1)[C@@H](C)O)[C@@H](C)O)[C@@H](C)CC)[C@@H](C)CC)C(=O)N[C@@H](CCC(=O)O)C(=O)NCC(=O)NCC(=O)N1CCC[C@H]1C(=O)N[C@@H](CO)C(=O)N[C@@H](CO)C(=O)NCC(=O)N[C@@H](C)C(=O)N1CCC[C@H]1C(=O)N1CCC[C@H]1C(=O)N1CCC[C@H]1C(=O)N[C@@H](CO)C(N)=O [Example 190] (H-H[Aib]EGT[αMePhe(2-F)]TSD[3Pal]SI[αMeL]LDEK([AEEA-AEEA-γGlu-C20 diacid])AQ[Aib]EFI[dE]YLIEGGPSSGAPPPS-NH2) | 0.0241 nM | 0.738 nM
6 | CC[C@H](C)[C@H](NC(=O)[C@H](CC(C)C)NC(=O)[C@H](Cc1ccc(O)cc1)NC(=O)[C@H](CCC(=O)O)NC(=O)[C@@H](NC(=O)[C@H](Cc1ccccc1)NC(=O)[C@H](C)NC(=O)[C@H](CCC(N)=O)NC(=O)[C@H](CCC(N)=O)NC(=O)[C@H](C)NC(=O)[C@H](CCCCNC(=O)COCCOCCNC(=O)COCCOCCNC(=O)CC[C@H](NC(=O)CCCCCCCCCCCCCCCCCCC(=O)O)C(=O)O)NC(=O)[C@H](CCC(=O)O)NC(=O)[C@H](CC(=O)O)NC(=O)[C@H](CC(C)C)NC(=O)[C@H](CC(C)C)NC(=O)[C@@H](NC(=O)[C@H](CO)NC(=O)[C@H](Cc1ccc(O)cc1)NC(=O)[C@H](CC(=O)O)NC(=O)[C@H](CO)NC(=O)[C@@H](NC(=O)[C@H](Cc1ccccc1)NC(=O)[C@@H](NC(=O)CNC(=O)[C@H](CCC(=O)O)NC(=O)[C@]1(C)CCCN1C(=O)[C@@H](N)Cc1ccc(O)cc1)[C@@H](C)O)[C@@H](C)O)[C@@H](C)CC)[C@@H](C)CC)C(=O)N[C@@H](CCC(=O)O)C(=O)NCC(=O)NCC(=O)N1CCC[C@H]1C(=O)N[C@@H](CO)C(=O)N[C@@H](CO)C(=O)NCC(=O)N[C@@H](C)C(=O)N1CCC[C@H]1C(=O)N1CCC[C@H]1C(=O)N1CCC[C@H]1C(=O)N[C@@H](CO)C(N)=O [Example 193] (H-Y[αMeP]EGTFTSDYSILLDEK([AEEA-AEEA-γGlu-C20 diacid])AQQAFIEYLIEGGPSSGAPPPS-NH2) | 0.162 nM | 0.336 nM
